IC50 data for 11 compounds are collected here from ChEMBL document CHEMBL1130471, “RES-701-1/endothelin-1 hybrid peptide having a potent binding activity for type B receptor” (Bioorg Med Chem Lett, 1997).

Where only a bound is given, the exact number is not on record here.

The target in one assay is T1, Endothelin-1 receptor (Bos taurus, UniProt P21450).
T1 sequence (P21450 whole entry): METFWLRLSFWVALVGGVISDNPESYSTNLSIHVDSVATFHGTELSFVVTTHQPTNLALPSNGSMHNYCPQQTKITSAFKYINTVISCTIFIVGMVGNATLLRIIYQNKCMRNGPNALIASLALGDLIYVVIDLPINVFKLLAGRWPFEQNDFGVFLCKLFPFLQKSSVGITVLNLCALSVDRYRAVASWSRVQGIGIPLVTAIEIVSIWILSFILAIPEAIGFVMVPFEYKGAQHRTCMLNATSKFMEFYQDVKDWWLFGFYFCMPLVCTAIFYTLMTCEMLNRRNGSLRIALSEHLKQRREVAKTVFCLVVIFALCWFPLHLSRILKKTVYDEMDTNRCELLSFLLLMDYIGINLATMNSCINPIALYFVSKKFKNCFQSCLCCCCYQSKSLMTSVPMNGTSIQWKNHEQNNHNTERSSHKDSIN
As to the kind of experiment: Binding activity to ET-A receptor on bovine lung membrane was determined. It counts as tissue-based.

Assay [1] addresses T2, Endothelin receptor type B (Bos taurus, UniProt P28088).
T2 sequence (P28088 whole entry): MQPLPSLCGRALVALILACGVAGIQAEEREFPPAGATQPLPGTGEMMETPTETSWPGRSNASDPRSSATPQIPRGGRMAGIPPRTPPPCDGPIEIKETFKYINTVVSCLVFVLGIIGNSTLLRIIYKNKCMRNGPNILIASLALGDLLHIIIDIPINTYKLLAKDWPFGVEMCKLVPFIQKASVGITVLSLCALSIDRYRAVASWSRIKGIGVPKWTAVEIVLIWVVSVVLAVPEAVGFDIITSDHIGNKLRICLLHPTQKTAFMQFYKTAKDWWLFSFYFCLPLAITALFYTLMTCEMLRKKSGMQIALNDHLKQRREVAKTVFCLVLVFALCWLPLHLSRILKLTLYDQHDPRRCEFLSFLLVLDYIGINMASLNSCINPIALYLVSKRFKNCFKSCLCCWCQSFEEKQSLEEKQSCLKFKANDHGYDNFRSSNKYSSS
As to the kind of experiment: Binding activity to ET-B receptor on bovine cerebellum membrane. Format: tissue-based.

A word on the IC50: it is the concentration that gives 50% inhibition. With `CC[C@H](C)[C@H](NC(=O)[C@H](CC(=O)O)NC(=O)[C@H](CC(C)C)NC(=O)[C@H](Cc1c[nH]cn1)NC(=O)[C@H](C)NC(=O)[C@H](Cc1ccccc1)NC(=O)[C@H](Cc1ccc(O)cc1)NC(=O)[C@@H](NC(=O)[C@H](Cc1c[nH]c2ccccc12)NC(=O)[C@@H]1CC(=O)NCC(=O)N[C@@H](CC(N)=O)C(=O)N[C@@H](Cc2c[nH]c3ccccc23)C(=O)N[C@@H](Cc2c[nH]cn2)C(=O)NCC(=O)N[C@@H]([C@@H](C)O)C(=O)N[C@@H](C)C(=O)N2CCC[C@H]2C(=O)N1)C(C)C)C(=O)N[C@H](C(=O)N[C@@H](Cc1c[nH]c2ccccc12)C(=O)O)[C@@H](C)CC`, on Endothelin-1 receptor, the 50% inhibitory concentration (IC50) was over 0.1 µM.
On the same count and under the same terms, then `C[C@@H]1NC(=O)[C@H]([C@@H](C)O)NC(=O)CNC(=O)[C@H](Cc2c[nH]cn2)NC(=O)[C@H](Cc2c[nH]c3ccccc23)NC(=O)[C@H](CC(N)=O)NC(=O)CNC(=O)C[C@@H](C(=O)N[C@@H](Cc2c[nH]c3ccccc23)C(=O)N[C@@H](Cc2ccccc2)C(=O)N[C@@H](Cc2ccccc2)C(=O)N[C@@H](CC(N)=O)C(=O)N[C@@H](Cc2ccc(O)cc2)C(=O)N[C@@H](Cc2ccc(O)cc2)C(=O)N[C@@H](Cc2c[nH]c3ccccc23)C(=O)O)NC(=O)[C@@H]2CCCN2C1=O`, with over 5 µM; and `CC[C@H](C)[C@H](NC(=O)[C@@H](NC(=O)[C@H](CC(=O)O)NC(=O)[C@H](CCC(N)=O)NC(=O)[C@H](Cc1c[nH]cn1)NC(=O)[C@H](C)NC(=O)[C@H](Cc1ccccc1)NC(=O)[C@H](Cc1ccc(O)cc1)NC(=O)[C@H](CC(C)C)NC(=O)[C@H](Cc1c[nH]c2ccccc12)NC(=O)[C@@H]1CC(=O)NCC(=O)N[C@@H](CC(N)=O)C(=O)N[C@@H](Cc2c[nH]c3ccccc23)C(=O)N[C@@H](Cc2c[nH]cn2)C(=O)NCC(=O)N[C@@H]([C@@H](C)O)C(=O)N[C@@H](C)C(=O)N2CCC[C@H]2C(=O)N1)C(C)C)C(=O)N[C@@H](Cc1c[nH]c2ccccc12)C(=O)O`, with over 0.1 µM.
As to `CC[C@H](C)[C@H](NC(=O)[C@H](CC(=O)O)NC(=O)[C@H](CC(C)C)NC(=O)[C@H](Cc1c[nH]cn1)NC(=O)[C@H](C)NC(=O)[C@H](Cc1ccc(O)cc1)NC(=O)[C@H](Cc1ccc(O)cc1)NC(=O)[C@@H](NC(=O)[C@H](Cc1c[nH]c2ccccc12)NC(=O)[C@@H]1CC(=O)NCC(=O)N[C@@H](CC(N)=O)C(=O)N[C@@H](Cc2c[nH]c3ccccc23)C(=O)N[C@@H](Cc2c[nH]cn2)C(=O)NCC(=O)N[C@@H]([C@@H](C)O)C(=O)N[C@@H](C)C(=O)N2CCC[C@H]2C(=O)N1)C(C)C)C(=O)N[C@H](C(=O)N[C@@H](Cc1c[nH]c2ccccc12)C(=O)O)[C@@H](C)CC`, the IC50 at Endothelin-1 receptor is over 0.1 µM.
Take `C[C@@H]1NC(=O)[C@H]([C@@H](C)O)NC(=O)CNC(=O)[C@H](Cc2c[nH]cn2)NC(=O)[C@H](Cc2c[nH]c3ccccc23)NC(=O)[C@H](CC(N)=O)NC(=O)CNC(=O)[C@H](Cc2c[nH]c3ccccc23)NC(=O)[C@H](Cc2ccc(O)cc2)NC(=O)[C@H](Cc2ccc(O)cc2)NC(=O)[C@H](CC(N)=O)NC(=O)[C@H](Cc2ccccc2)NC(=O)[C@H](Cc2ccccc2)NC(=O)[C@H](Cc2c[nH]c3ccccc23)NC(=O)[C@H](CC(=O)O)NC(=O)[C@@H]2CCCN2C1=O`: the IC50 in assay [1] is over 5 µM.
The same measure, in the same setting: then `C[C@H](NC(=O)[C@@H](NC(=O)CNC(=O)[C@H](Cc1c[nH]cn1)NC(=O)[C@H](Cc1c[nH]c2ccccc12)NC(=O)[C@H](CC(N)=O)NC(=O)CN)[C@@H](C)O)C(=O)N1CCC[C@H]1C(=O)N[C@@H](CC(=O)O)C(=O)N[C@@H](Cc1c[nH]c2ccccc12)C(=O)N[C@@H](Cc1ccccc1)C(=O)N[C@@H](Cc1ccccc1)C(=O)N[C@@H](CC(N)=O)C(=O)N[C@@H](Cc1ccc(O)cc1)C(=O)N[C@@H](Cc1ccc(O)cc1)C(=O)N[C@@H](Cc1c[nH]c2ccccc12)C(=O)O`, with 5 µM; and `CC[C@H](C)[C@H](NC(=O)[C@H](CC(=O)O)NC(=O)[C@H](CC(C)C)NC(=O)[C@H](Cc1cnc[nH]1)NC(=O)[C@@H]1CSSC[C@H](N)C(=O)N[C@@H](CO)C(=O)N[C@H]2CSSC[C@H](NC(=O)[C@H](CCC(=O)O)NC(=O)[C@H](CCCCN)NC(=O)[C@H](CC(=O)O)NC(=O)[C@H](CCSC)NC(=O)[C@H](CC(C)C)NC(=O)[C@H](CO)NC(=O)[C@H](CO)NC2=O)C(=O)N[C@@H](C(C)C)C(=O)N[C@@H](Cc2ccc(O)cc2)C(=O)N[C@@H](Cc2ccccc2)C(=O)N1)C(=O)N[C@H](C(=O)N[C@@H](Cc1c[nH]c2ccccc12)C(=O)O)[C@@H](C)CC` [ENDOTHELIN], with 1 µM; and H-LYFCHQDVIW-OH, with 3 µM.
Same read-out and setting: for H-VYFSHLDIIW-OH the value was 1 µM; for H-VYYCHLDIIW-OH, 3 µM.
On the same count and under the same terms, then H-WFFNYYW-OH, with 3 µM.
